Earlier results, collected in patent publication US20230228766A1, “SERUM BIOMARKERS FOR PREDICTING AND PREVENTING HEMORRHAGIC STROKE” (Texas Tech University System, priority 2020, published 2023).

Conditions: free PRG in blood

CC(=O)[C@H]1CC[C@H]2[C@@H]3CCC4=CC(=O)CC[C@]4(C)[C@H]3CC[C@]12C [PRG, progesterone]
half-life of free, active form in blood: 5 to 10 min
